We go through 3 sequences from patent US12024543B2, “Micropeptides and use of same for modulating gene expression” (UNIVERSITE PAUL SABATIER TOULOUSE III, priority 2013, dated 2024).

Assay [1] has as its system HsmiR155. The assay can be described thus: HeLa cells transfected to overexpress HsmiPEP155, relative expression of Pre-miR155. It is filed as cell-based, Homo sapiens. The following applies: HeLa cells overexpressing HsmiPEP155. The source says: The DNA fragments of interest (HsmiPEP155 and the mutated miPEP) were synthesized or amplified by PCR using specific primers, and then cloned using the enzymes XhoI and NotI into a pUAS plasmid permitting their overexpression by means of the GAL4 transcription factor, the expression of which is controlled by a constitutive strong promoter.
The different constructs were produced either by PCR amplification on genomic DNA of HeLa cells, or by RT-PCR on total RNAs of L428 human cells. The amplified PCR fragments are digested with the HindIII/EcoRI restriction enzymes and then cloned into the vector pcDNA3.1. The DH5a strain of Escherichia coli is electroporated and then cultured on a solid medium (2YT+agar+ampicillin). The plasmid DNA from different clones is then prepared and sequenced for verification. The constructs are then prepared using the QIAfilter Plasmid Midi kit (QIAGEN) and stored at −20° C.
The HeLa cells (established tumour line, ATCC CCL-2.2) are cultured in a 6-well plate in complete medium [(DMEM (1×)+Glutamax+4.5 g/L glucose without pyruvate+1× penicillin/streptomycin+1 mM Na-pyruvate+10% calf serum] and placed in an incubator at 37° C. and 5% CO2.
The cells are transfected when they are at 50% confluence. […]
10-15 μg of total RNAs is then analysed by Northern blot on 15% acrylamide gel [solution of acrylamide/40% bis-acrylamide, ratio 19:1], 7M urea in TBE 1×. […]

The test system of assay [2] is Arabidopsis thaliana. The assay can be described thus: Growth of Arabidopsis thaliana plants watered with synthetic miPEP. It is filed as in vivo. As to conditions: A. thaliana; watered with 0.1 μM synthetic peptide, 3 weeks of growth, vs water. Here is the method:
The photographs show two plants (top views and side views) after 3 weeks of growth: a control plant watered with water (A), and a plant watered with a composition of 0.1 μM of synthetic peptide corresponding to AtmiPEP164a (B).
The photographs show two plants (top views and side views) after 3 weeks of growth: a control plant watered with water (A), and a plant watered with a composition of 0.1 μM of synthetic peptide corresponding to AtmiPEP319a1 (B).

Assay [3] concerns AtmiR319a. The assay can be described thus: Overexpression of AtmiPEP319a1 in A. thaliana, qRT-PCR of AtmiR319a. As to conditions: overexpression of AtmiPEP319a1 vs control plant. Type of assay: in vivo, Arabidopsis thaliana. (In general: Real-time PCR tracks product formation cycle by cycle.)
The subject of assay [4] is AtmiR165a. The assay can be described thus: Expression of AtmiPEP165a (AtmiORF165a) in tobacco expressing AtmiR165a. It is filed as in vivo, Nicotiana benthamiana. The following applies: overexpression of AtmiORF165a. Here is the method: At present, AtmiPEP165a and AtmiPEP319a2, identified in Arabidopsis thaliana, have already been characterized.
The total RNA was extracted from roots of M. truncatula or from tobacco leaves using the extraction kit RNeasy Plant Mini Kit (Qiagen). The reverse transcription was performed using the reverse transcriptase SuperScript II (Invitrogen) starting from 500 ng of total RNA. Three repetitions (n=3) were carried out, each with two technical repetitions. Each experiment was repeated from two to three times. The amplifications by qPCR were carried out using a LightCycler 480 System thermocycler (Roche Diagnostics) by the method described in Lauressergues et al. (Plant J., 72(3): 512-22, 2012).
For the miPEPs 165a and 319a, the corresponding miORFs were cloned into pBIN19 by the method described in Combier et al. (Genes & Dev, 22: 1549-1559, 2008).
The composite plants having roots transformed with Agrobacterium rhizogenes were obtained by the method described in Boisson-Dernier et al. (Mol Plant-Microbe Interact, 18: 1269-1276, 2005). The transformed roots were verified and selected by observations of DsRED with a binocular fluorescence magnifier. The control roots correspond to roots transformed with A. rhizogenes not containing the pPEX-DsRED vector. Transformation of the tobacco leaves was carried out by the method described in Combier et al. (Genes & Dev, 22: 1549-1559, 2008).

Assay [5] concerns Arabidopsis thaliana. The assay can be described thus: Root growth of Arabidopsis thaliana treated with AtmiPEP165a. Type of assay: in vivo. The following applies: Arabidopsis thaliana treated with AtmiPEP165a vs control plant of the same age.
Assay [6] deals with AtmiR165a. The assay can be described thus: Relative expression of AtmiR165a and its target genes in A. thaliana roots treated with AtmiPEP165a. It is filed as in vivo, Arabidopsis thaliana. As to conditions: AtmiPEP165a 0.01, 0.1, 1 or 10 μM vs water.
Assay [7] relates to AtmiR165a. The assay can be described thus: Northern blot of miR165a in A. thaliana roots treated with synthetic AtmiPEP165a. Type of assay: in vivo, Arabidopsis thaliana. As to conditions: 0.1 μM synthetic miPEP165a in water vs water.

In the case of “MEMALMVAQTRKGKSVV (listed as Homo sapiens) [HsmiPEP155]”, the “expression of HsmiR155 (relative expression of Pre-miR155)” value in assay [1] is recorded as “increases”.
In the case of “MNIHTYHHLLFPSLVFHQSSDVPNALSLHIHTYEYIIVVIDPFRITLAFR (listed as Arabidopsis thaliana) [AtmiPEP319a1]”, the plant growth result in assay [2] was “increases plant growth significantly”. Also, in assay [3], the “accumulation of AtmiR319a” value is on record as “increase”.
“MRVKLFQLRGMLSGSRIL (listed as Arabidopsis thaliana) [AtmiPEP165a]”: the “accumulation of AtmiR165a” value was “increase” in assay [4] and “dose-dependent effect” in assay [6]. For the same sequence, in assay [5], the root growth phenotype result is reported as “greatly accelerated root growth”. Besides, the “regulation of the target genes of miR165a (PHV, PHB and REV)” value in assay [6] is listed as “negative regulation”. In addition, the “accumulation of miR165a (Northern blot)” value in assay [7] is reported as “increase”.
